Laboratory results reported in patent US6613784B1, “Nitroxyderivatives having antinflammatory, analgesic and antithrombotic activity” (Nicox S.A., priority 1999, dated 2003).
Read-outs that look alike come from different tables or passages of the source.

How the values were obtained:
[1] = tested on: rabbit aorta smooth muscle; assay: Inhibition of smooth muscle contraction, rabbit aorta in organ bath; set-up: species or system New Zealand White Rabbits; settings: Oryctolagus cuniculus, pre-contracted with phenylephrine (10 μM)
Experimental: (§1) New Zealand White Rabbits (2.0-2.5 kg) were killed by cervical dislocation, cavernosal tissue (corpus canvernosus) and aorta excised.
(§2) The tissue was mounted in organ baths for recording of isometric tension, according to the method described by Khan MA et al (BJU Int. 1999 84(6):720-4). Tissues were pre-contracted with phenylephrine (10 μM) and relaxation responses to carbachol assessed in the presence of the compound to be tested.
(§3) The compound of the invention used in the assay was 2-acetyloxybenzoic acid 6-(nitroxymethyl)-2-pyridinylmethyl ester hydrochloride (NCX 4050), which synthesis is described in preceding example 1.
(§4) The reference compound was 2-acetoxybenzoic acid (3-nitroxymethyl)phenyl ester of formula [drawing 34]

[2] = tested on: rabbit corpus cavernosum smooth muscle; assay: Inhibition of smooth muscle contraction, rabbit corpus cavernosum in organ bath; set-up: species or system New Zealand White Rabbits; settings: Oryctolagus cuniculus, pre-contracted with phenylephrine (10 μM)
Experimental: as §1, §2, §3, §4

[3] = tested on: human vascular smooth cell proliferation; assay: Inhibition of smooth muscle cell proliferation (3H-thymidine); type: cell-based; settings: 10% FCS
Experimental: Human saphenous veins were cultured by standard explant methods (J. Cardiovasc., Pharmacol. 1999, 33(2), 204-11). Tissues were collected into sterile pots containing PBS, penicillin and streptomycin. Under sterile tissue culture conditions, tissues were cut into small pieces (approximately 1 mg weight) and placed into a standard culture medium containing 20% fetal calf serum (FCS) for several days (medium changed every 2-4 days). ^3H-thymidine was measured in the DNA fraction of cells cultured into 48 well plates. Cells were cultured to confluence in the medium containing 10% FCS. Cells were deprived of serum for 24 h before the addition of 10% FCS, together with different concentration of steroids. After 24 h, ^3H-thymidine was added to the cells for 4 h. Cells were washed with phosphate buffered saline and ethanol. DNA was extracted with sodium hydroxide solution and the ^3H material counted by scintillation. The data represents observations made in triplicate wells.
Table 2 reports results obtained on the inhibitory effect of the tested compounds on human vascular smooth cell proliferation.

[4] = concentration (log M) −4, human saphenous vein cells
[5] = concentration (log M) −5, human saphenous vein cells

Compound | inhibition at 100 µM ([1]; concentration (log M) −4) [%] | inhibition at 10 µM ([1]; concentration (log M) −5, read-out: % inhibition rabbit aorta) [%] | inhibition at 10 µM ([2]; concentration (log M) −5, read-out: % inhibition rabbit corpus cav) [%] | % inhibition cell proliferation [3, 4] [%] | % inhibition cell proliferation [3, 5] [%] | inhibition at 10 µM ([1]; read-out: % inhibition rabbit aorta, concentration (log M) −5) [%] | inhibition at 10 µM ([2]; read-out: % inhibition rabbit corpus cav, concentration (log M) −4) [%] | inhibition at 10 µM ([2]; read-out: % inhibition rabbit corpus cav, concentration (log M) −5) [%]
CC(=O)Oc1ccccc1C(=O)Oc1cccc(CO[N+](=O)[O-])c1 [NCX 4016, 2-acetoxybenzoic acid (3-nitroxymethyl)phenyl ester] | 20 | 18 | 14 | 60 | 43 |  |  | 
CC(=O)Oc1ccccc1C(=O)OCc1cccc(CO[N+](=O)[O-])n1.Cl [NCX 4050, 2-Acetyloxybenzoic Acid 6-(Nitroxymethyl)-2-pyridinylmethyl Ester Chlorhydrate] |  |  |  | 95 | 82 | 80 | 85 | 63
